Data reported in patent publication US6939946B2, “Ring modified cyclic peptide analogs” (Eli Lilly and Company, priority 1998, dated 2005).
Where a name gives a salt, the structure may show the parent alone. Bridge positions count the residues as written; N and C are the ends. Square brackets hold non-standard residues; d marks the D form. Peptide text beside a SMILES is read from it. * marks the point of attachment. ξ: configuration not given here. pTerphenylCO(4''-OnC5H11) = CCCCCOc1ccc(-c2ccc(-c3ccc(C(=O)*)cc3)cc2)cc1; Pro(3S-OH,4S-Me) = C[C@H]1CN[C@H](C(=O)O)[C@H]1O; hTyr(3R-OH) = N[C@H](C(=O)O)[C@H](O)Cc1ccc(O)cc1; Hyp = O=C(O)[C@@H]1C[C@@H](O)CN1; Thr(3ξ) = CC(O)[C@H](N)C(=O)O; dOrn = NCCC[C@@H](N)C(=O)O; Orn = NCCC[C@H](N)C(=O)O; Dab = NCC[C@H](N)C(=O)O; ξDap = NCC(N)C(=O)O

Legend:
Conditions in all cases: in vitro
C. albicans = system: C. albicans
C. parapsilosis = system: C. parapsilosis
A. fumigatus = system: A. fumigatus
Histoplasma capsulatum = system: Histoplasma capsulatum

SMILES	Minimal Inhibitory Concentration MIC C. albicans (C. albicans)	Minimal Inhibitory Concentration MIC C. parapsilosis (C. parapsilosis)	Minimal Inhibitory Concentration MIC A. fumigatus (A. fumigatus)	Minimal Inhibitory Concentration MIC Histoplasma capsulatum (Histoplasma capsulatum)
CCCCCOc1ccc(-c2ccc(-c3ccc(C(=O)N[C@H]4CCN(C)NC(=O)[C@@H]5[C@@H](O)[C@@H](C)CN5C(=O)[C@H](C(C)O)NC(=O)[C@H]([C@H](O)Cc5ccc(O)cc5)NC(=O)[C@@H]5C[C@@H](O)CN5C(=O)[C@H](C(C)O)NC4=O)cc3)cc2)cc1 (single isomer, unassigned) [E2-11(a) HCl salt]	0.001 µg/mL	0.156 µg/mL	0.078 µg/mL	0.02 µg/mL
CCCCCOc1ccc(-c2ccc(-c3ccc(C(=O)N[C@H]4CCN(C)NC(=O)[C@@H]5[C@@H](O)[C@@H](C)CN5C(=O)[C@H](C(C)O)NC(=O)[C@H]([C@H](O)Cc5ccc(O)cc5)NC(=O)[C@@H]5C[C@@H](O)CN5C(=O)[C@H](C(C)O)NC4=O)cc3)cc2)cc1 (single isomer, unassigned) [E2-11(a) TFA salt]	0.005 µg/mL	0.156 µg/mL	0.039 µg/mL	0.78 µg/mL
CCCCCOc1ccc(-c2ccc(-c3ccc(C(=O)N[C@H]4CCN(C(=O)C(N)CN)NC(=O)[C@@H]5[C@@H](O)[C@@H](C)CN5C(=O)[C@H](C(C)O)NC(=O)[C@H]([C@H](O)Cc5ccc(O)cc5)NC(=O)[C@@H]5C[C@@H](O)CN5C(=O)[C@H](C(C)O)NC4=O)cc3)cc2)cc1 (single isomer, unassigned) [E2-13 (isomer 1)]	0.078 µg/mL	2.5 µg/mL	0.625 µg/mL	1.25 µg/mL
CCCCCOc1ccc(-c2ccc(-c3ccc(C(=O)N[C@H]4CCN(C(=O)C(N)CN)NC(=O)[C@@H]5[C@@H](O)[C@@H](C)CN5C(=O)[C@H](C(C)O)NC(=O)[C@H]([C@H](O)Cc5ccc(O)cc5)NC(=O)[C@@H]5C[C@@H](O)CN5C(=O)[C@H](C(C)O)NC4=O)cc3)cc2)cc1 (single isomer, unassigned) [E2-13 (isomer 2)]	0.156 µg/mL	20 µg/mL	1.25 µg/mL	10 µg/mL
CCCCCOc1ccc(-c2ccc(-c3ccc(C(=O)N[C@H]4CCCNC(=O)[C@@H]5[C@@H](O)[C@@H](C)CN5C(=O)[C@H](C(C)O)NC(=O)[C@H]([C@H](O)Cc5ccc(O)cc5)NC(=O)[C@@H]5C[C@@H](O)CN5C(=O)[C@H](C(C)O)NC4=O)cc3)cc2)cc1 (stereo partly drawn) [Compound E1-3] ({pTerphenylCO(4''-OnC5H11)}-[Orn][Thr(3ξ)][Hyp][hTyr(3R-OH)][Thr(3ξ)][Pro(3S-OH,4S-Me)]; lactam 1-C)	0.005 µg/mL	0.156 µg/mL	0.078 µg/mL	0.156 µg/mL
CCCCCOc1ccc(-c2ccc(-c3ccc(C(=O)N[C@@H]4CCCNC(=O)[C@@H]5[C@@H](O)[C@@H](C)CN5C(=O)[C@H](C(C)O)NC(=O)[C@H]([C@H](O)Cc5ccc(O)cc5)NC(=O)[C@@H]5C[C@@H](O)CN5C(=O)[C@H](C(C)O)NC4=O)cc3)cc2)cc1 (stereo partly drawn) [Compound E1-4] ({pTerphenylCO(4''-OnC5H11)}-[dOrn][Thr(3ξ)][Hyp][hTyr(3R-OH)][Thr(3ξ)][Pro(3S-OH,4S-Me)]; lactam 1-C)	1.25 µg/mL	>20 µg/mL	20.0 µg/mL	5.0 µg/mL
CCCCCOc1ccc(-c2ccc(-c3ccc(C(=O)N[C@H]4CCCCNC(=O)[C@@H]5[C@@H](O)[C@@H](C)CN5C(=O)[C@H](C(C)O)NC(=O)[C@H]([C@H](O)Cc5ccc(O)cc5)NC(=O)[C@@H]5C[C@@H](O)CN5C(=O)[C@H](C(C)O)NC4=O)cc3)cc2)cc1 (stereo partly drawn) [Compound E1-5] ({pTerphenylCO(4''-OnC5H11)}-K[Thr(3ξ)][Hyp][hTyr(3R-OH)][Thr(3ξ)][Pro(3S-OH,4S-Me)]; lactam 1-C)	0.02 µg/mL	>20 µg/mL	2.5 µg/mL	0.156 µg/mL
CCCCCOc1ccc(-c2ccc(-c3ccc(C(=O)N[C@H]4CCNC(=O)[C@@H]5[C@@H](O)[C@@H](C)CN5C(=O)[C@H](C(C)O)NC(=O)[C@H]([C@H](O)Cc5ccc(O)cc5)NC(=O)[C@@H]5C[C@@H](O)CN5C(=O)[C@H](C(C)O)NC4=O)cc3)cc2)cc1 (stereo partly drawn) [Compound E1-6] ({pTerphenylCO(4''-OnC5H11)}-[Dab][Thr(3ξ)][Hyp][hTyr(3R-OH)][Thr(3ξ)][Pro(3S-OH,4S-Me)]; lactam 1-C)	0.039 µg/mL	>20 µg/mL	20 µg/mL	0.078 µg/mL
CCCCCOc1ccc(-c2ccc(-c3ccc(C(=O)NC4CNC(=O)[C@@H]5[C@@H](O)[C@@H](C)CN5C(=O)[C@H](C(C)O)NC(=O)[C@H]([C@H](O)Cc5ccc(O)cc5)NC(=O)[C@@H]5C[C@@H](O)CN5C(=O)[C@H](C(C)O)NC4=O)cc3)cc2)cc1 (stereo partly drawn) [Compound E1-7] ({pTerphenylCO(4''-OnC5H11)}-[ξDap][Thr(3ξ)][Hyp][hTyr(3R-OH)][Thr(3ξ)][Pro(3S-OH,4S-Me)]; lactam 1-C)	0.312 µg/mL	>20 µg/mL	0.625 µg/mL	0.625 µg/mL
CCCCCOc1ccc(-c2ccc(-c3ccc(C(=O)N[C@H]4CCN(C(=O)CN)NC(=O)[C@@H]5[C@@H](O)[C@@H](C)CN5C(=O)[C@H](C(C)O)NC(=O)[C@H]([C@H](O)Cc5ccc(O)cc5)NC(=O)[C@@H]5C[C@@H](O)CN5C(=O)[C@H](C(C)O)NC4=O)cc3)cc2)cc1 (stereo partly drawn) [Compound E2-12]	0.01 µg/mL	0.312 µg/mL	0.156 µg/mL	0.039 µg/mL
CCCCCOc1ccc(-c2ccc(-c3ccc(C(=O)NC4CS(=O)(=O)CCNC(=O)[C@@H]5[C@H](O)[C@@H](C)CN5C(=O)[C@H]([C@@H](C)O)NC(=O)[C@H]([C@H](O)Cc5ccc(O)cc5)NC(=O)[C@@H]5C[C@@H](O)CN5C(=O)[C@H]([C@@H](C)O)NC4=O)cc3)cc2)cc1 (stereo partly drawn) [Compound E3-6]	10 µg/mL	>20 µg/mL	20 µg/mL	10 µg/mL
CCCCCOc1ccc(-c2ccc(-c3ccc(C(=O)N[C@@H]4CS(=O)(=O)CCNC(=O)[C@@H]5[C@H](O)[C@@H](C)CN5C(=O)[C@H]([C@@H](C)O)NC(=O)[C@H]([C@H](O)Cc5ccc(O)cc5)NC(=O)[C@@H]5C[C@@H](O)CN5C(=O)[C@H]([C@@H](C)O)NC4=O)cc3)cc2)cc1 [Compound E3-7]	>20 µg/mL	>20 µg/mL	>20 µg/mL	>20 µg/mL
